Values after ≈ are worked out from the molar mass of the structure shown. Values joined by “and” are separate entries in the source; they are usually repeats but may differ in a detail not shown here. Equal values may be shown once.
Legend:
[1] = In vitro dissolution studies: dynamic solubility in buffers and simulated biological fluids; format: physicochemical; design: BBR dissolved in CMC-Na (Figure S7a) / Ibu dissolved in CMC-Na (Figure S7b): unit not given here; conditions: mean; for solubility at 0.5 h / solubility at 1 h / solubility at 2 h / solubility at 24 h: 37 °C
Procedure: Solubilities were determined by adding excess sample to 30 mL different mediums, such as HCl solution, acetate buffer, phosphate buffer, SGF, FaSSIF and FeSSIF. The configuration of various buffer solutions is shown in Supplementary Table 2. After being shaken at 400 rpm at 37 °C for 0.5, 1, 2, and 24 h, 0.3 mL of suspension was sampled and centrifuged at 14,000 rpm for 8 min to isolate mother liquor, and then analyzed by HPLC after dilution. All samples were analyzed in triplicate.

[2] = tested on: db/db mice; test: HE staining of epididymal adipose tissue, adipocyte size; format: in vivo; conditions: BJ 75 and 150 mg/kg, BBR 150 mg/kg, Ibu 150 mg/kg
Procedure: The adipose tissue was fixed overnight in 4% paraformaldehyde, then embedded in paraffin and cut into 5 µm thick slices. Tissue sections were stained with hematoxylin and eosin (H&E). For immunohistochemistry, sections were incubated with primary antibodies against F4/80 (1:100 dilution) diluted in the blocking solution at 4 °C overnight. The tissue sections were then incubated with the horseradish peroxidase (HRP)-conjugated secondary antibody at room temperature for 2 h. Finally, the sections were developed with diaminobenzidine (DAB) and counterstained with hematoxylin. Images were obtained under a microscope. To quantify the F4/80-positive macrophages, two random fields per sample were analyzed by Image J software. The IHC profiler plugin of ImageJ was used to calculate the F4/80 positive area.

[3] = tested on: db/db mice; test: Weekly fasting glucose levels of db/db mice; format: in vivo; conditions: 150mg/kg
Procedure: The lean wild type control and the db/db control mice were given equal vehicle volume (0.5% CMC-Na solution). All mice were monitored for food intake, body weight, and fasting blood glucose during the 35-day trial. Glucose tolerance test (GTT) and insulin resistance test (ITT) were performed at 4 and 5 weeks of treatment, respectively. Metabolic analysis was performed at 5 weeks of treatment. At the end of the study, blood samples were taken through the retroorbital venous sinus of mice, fat depots (brown fat, inguinal subcutaneous fat, epididymal fat, perirenal fat and mesenteric fat depot) were dissected, weighed, and immediately frozen in liquid nitrogen and stored at −80 °C until required. Weight of fat depots are expressed in percentage (fat depots weight /bodyweight * 100%).

[4] = tested on: db/db mice; test: Insulin tolerance test (ITT), AUC and initial slope; format: in vivo; conditions: db/db mice, IBU 150mg/kg
Procedure: Mice were fasted for 4 h for insulin resistance test and intraperitoneally injected with 1 unit/kg of insulin. Blood glucose levels were measured from the tail vein blood at 0, 15, 30, 45, 60, 90, and 120 min after injection. Plasma insulin levels were measured using an ultrasensitive mouse insulin ELISA kit (Nanjing Jiancheng Bioengineering Institute, Nanjing, China).

[5] = aqueous buffer, thermodynamic from solid, Acetate buffer (pH 4.5)
[6] = fasted state simulated intestinal fluid (FaSSIF-V1), FaSSIF-V1 (pH 6.5)
[7] = fed state simulated intestinal fluid (FeSSIF-V1), thermodynamic from solid, FeSSIF-V1 (pH 5.0)
[8] = simulated gastric fluid (SGF), SGF (pH 2.0)

CC(C)Cc1ccc(C(C)C(=O)O)cc1 (stereo not drawn) [Ibu, Ibuprofen, reference compound]
solubility at 0.5 h ([1]; Acetate buffer (pH 4.5)): 89.5 µg/mL (≈ 0.434 mM) | solubility at 1 h ([1]; Acetate buffer (pH 4.5)): 103 µg/mL (≈ 0.497 mM) | Ibu dissolved in CMC-Na (Figure S7b) ([1]; time 0.5): 0.09941 | Ibu dissolved in CMC-Na (Figure S7b) ([1]; time 1): 0.1517 | Ibu dissolved in CMC-Na (Figure S7b) ([1]; time 24): 0.385 | solubility at 0.5 h ([1]; Phosphate buffer (pH 6.8)): 2650 µg/mL (≈ 12.9 mM) | solubility at 1 h ([1]; Phosphate buffer (pH 6.8)): 2680 µg/mL (≈ 13 mM) | solubility at 2 h [1, 5]: 124 µg/mL (≈ 0.603 mM) | solubility at 24 h [1, 5]: 125 µg/mL (≈ 0.605 mM) | solubility at 2 h ([1]; aqueous buffer, thermodynamic from solid, Phosphate buffer (pH 6.8)): 2900 µg/mL (≈ 14.1 mM) | solubility at 24 h ([1]; fasted state simulated intestinal fluid (FaSSIF-V1), thermodynamic from solid, FaSSIF-V1 (pH 6.5)): 1480 µg/mL (≈ 7.16 mM) | solubility at 0.5 h [1, 6]: 1660 µg/mL (≈ 8.07 mM) | solubility at 1 h [1, 6]: 1610 µg/mL (≈ 7.8 mM) | solubility at 2 h [1, 6]: 1610 µg/mL (≈ 7.81 mM) | solubility at 0.5 h [1, 7]: 798 µg/mL (≈ 3.87 mM) | solubility at 1 h [1, 7]: 780 µg/mL (≈ 3.78 mM) | solubility at 2 h [1, 7]: 890 µg/mL (≈ 4.31 mM) | solubility at 24 h [1, 7]: 705 µg/mL (≈ 3.42 mM) | solubility at 0.5 h [1, 8]: 51.9 µg/mL (≈ 0.252 mM) | solubility at 1 h [1, 8]: 70.4 µg/mL (≈ 0.341 mM) | solubility at 2 h [1, 8]: 77.3 µg/mL (≈ 0.375 mM) | solubility at 24 h [1, 8]: 59.9 µg/mL (≈ 0.29 mM) | Size of adipocytes in eWAT compared with vehicle [2]: not significantly different | Blood Glucose (Figure S9n) ([3]; week 0, individual animals): 16.0 mmol/L and 15.1 mmol/L and 15.0 mmol/L and 16.2 mmol/L and 11.3 mmol/L and 15.2 mmol/L | Blood Glucose (Figure S9n) ([3]; week 1, individual animals): 16.3 mmol/L and 19.3 mmol/L and 21.7 mmol/L and 13.6 mmol/L and 13.3 mmol/L and 14.9 mmol/L | Blood Glucose (Figure S9n) ([3]; week 2, individual animals): 20.7 mmol/L and 21.3 mmol/L and 19.0 mmol/L | Blood Glucose (Figure S9n) ([3]; week 3, individual animals): 23.3 mmol/L and 18.9 mmol/L and 18.7 mmol/L and 22.0 mmol/L | Blood Glucose (Figure S9n) ([3]; week 4, individual animals): 22.4 mmol/L and 22.3 mmol/L and 22.8 mmol/L | Blood Glucose (Figure S9n) ([3]; week 5, individual animals): 23.6 mmol/L and 23.0 mmol/L | Blood Glucose ([4]; times 0, individual animals (Figure S9p/S9r)): 22.4 mmol/L and 22.3 mmol/L and 22.8 mmol/L | Blood Glucose ([4]; times 15, individual animals (Figure S9p/S9r)): 24.0 mmol/L | Blood Glucose ([4]; times 30, individual animals (Figure S9p/S9r)): 19.6 mmol/L and 21.3 mmol/L and 20.3 mmol/L and 18.8 mmol/L | Blood Glucose ([4]; times 45, individual animals (Figure S9p/S9r)): 13.8 mmol/L and 18.5 mmol/L and 19.5 mmol/L and 17.5 mmol/L and 15.3 mmol/L and 15.6 mmol/L | Blood Glucose ([4]; times 60, individual animals (Figure S9p/S9r)): 15.0 mmol/L and 13.2 mmol/L and 20.4 mmol/L and 15.7 mmol/L | Blood Glucose ([4]; times 90, individual animals (Figure S9p/S9r)): 15.6 mmol/L and 21.3 mmol/L and 21.6 mmol/L and 14.9 mmol/L and 15.0 mmol/L | Blood Glucose ([4]; times 120, individual animals (Figure S9p/S9r)): 18.2 mmol/L and 22.9 mmol/L and 18.8 mmol/L and 16.9 mmol/L and 15.3 mmol/L

Source: article PMC9374667 (Communications Biology, 2022)
